This note sets out measurements from patent US8536342B2, “Process for producing thiabenzoazulene-propionic acid derivative” (Nippon Zoki Pharmaceutical Co., Ltd., priority 2009, dated 2013).

SMILES strings stand for the structures.

For one data set, the target named is T1, intracerebral receptor (Mus musculus, UniProt P70174).
T1 construct: from tissue; host or cells: mouse brain
Kind of data set: intracerebral receptor binding test by oral administration to mice. Format: in vivo.

For the next data set, the target named is histamine H1 receptor (Homo sapiens, UniProt P35367). Kind of data set: antagonistic action to histamine H1 receptor.
histamine H1 receptor, sequence (P35367 whole entry, species assumed): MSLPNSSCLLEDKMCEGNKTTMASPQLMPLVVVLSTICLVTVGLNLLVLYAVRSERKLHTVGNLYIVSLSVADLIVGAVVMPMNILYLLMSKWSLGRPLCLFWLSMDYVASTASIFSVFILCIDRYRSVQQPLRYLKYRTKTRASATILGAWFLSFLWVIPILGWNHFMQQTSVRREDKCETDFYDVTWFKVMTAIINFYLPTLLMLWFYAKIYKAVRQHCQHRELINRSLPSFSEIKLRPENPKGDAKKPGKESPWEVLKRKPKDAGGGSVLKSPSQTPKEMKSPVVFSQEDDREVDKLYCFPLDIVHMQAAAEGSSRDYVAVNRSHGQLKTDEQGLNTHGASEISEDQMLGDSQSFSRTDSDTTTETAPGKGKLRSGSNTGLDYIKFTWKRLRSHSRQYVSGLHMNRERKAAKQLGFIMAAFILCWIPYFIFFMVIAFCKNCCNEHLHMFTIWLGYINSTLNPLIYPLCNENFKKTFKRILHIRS

T1 sequence (P70174 whole entry): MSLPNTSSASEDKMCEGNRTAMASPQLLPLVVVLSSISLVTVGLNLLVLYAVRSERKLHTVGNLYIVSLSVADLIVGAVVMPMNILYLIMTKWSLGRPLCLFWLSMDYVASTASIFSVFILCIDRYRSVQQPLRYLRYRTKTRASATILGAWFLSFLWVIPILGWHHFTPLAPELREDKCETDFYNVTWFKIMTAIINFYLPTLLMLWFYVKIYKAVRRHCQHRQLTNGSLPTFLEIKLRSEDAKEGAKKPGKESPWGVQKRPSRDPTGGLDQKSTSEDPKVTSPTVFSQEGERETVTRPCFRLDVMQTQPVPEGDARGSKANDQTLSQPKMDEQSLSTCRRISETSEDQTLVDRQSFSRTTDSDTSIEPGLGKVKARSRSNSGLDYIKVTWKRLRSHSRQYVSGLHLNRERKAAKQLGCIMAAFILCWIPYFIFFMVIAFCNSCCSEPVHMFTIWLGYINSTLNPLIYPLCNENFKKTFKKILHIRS

Broadly, the melting point is the temperature of the solid-liquid transition. `CCOC(=O)N1CCC(=C2c3ccccc3CCc3sc(C=O)cc32)CC1` [Compound 2, ethyl 4-(2-formyl-9,10-dihydro-1-thia-benzo[f]azulen-4-ylidene)piperidine-1-carboxylate] came in with a melting point of 146 to 149 °C.

Regarding `CC(C)(C)OC(=O)N1CCC(=C2c3ccccc3CCc3sc(C=CC(=O)O)cc32)CC1` [Compound 6, 3-[4-(1-tert-butoxycarbonylpiperidin-4-ylidene)-9,10-dihydro-4H-1-thiabenzo[f]azulen-2-yl]acrylic acid], the melting point was 186 °C (dec.).

Compound `CCOC(=O)N1CCC(=C2c3ccccc3CCc3sccc32)CC1` [Compound 1, ethyl 4-(9,10-dihydro-1-thiabenzo[f]-azulen-4-ylidene)piperidine-1-carboxylate] displayed a melting point of 110 to 113 °C.

As for `O=C(O)C=Cc1cc2c(s1)CCc1ccccc1C2=C1CCNCC1` [Compound 4, 3-(4-piperidin-4-ylidene-9,10-dihydro-4H-1-thiabenzo[f]azulen-2-yl)acrylic acid], the melting point was 269 to 272 °C (dec.).

Regarding `CCOC(=O)N1CCC(=C2c3ccccc3CCc3sc(C=CC(=O)O)cc32)CC1` [Compound 3, 3-[4-(1-ethoxycarbonylpiperidin-4-ylidene)-9,10-dihydro-4H-1-thiabenzo[f]azulen-2-yl]acrylic acid], the melting point was 228 °C (dec.).

As to `CCOC(=O)C=Cc1cc2c(s1)CCc1ccccc1C2=C1CCN(C(=O)OCC)CC1` [Compound 8, ethyl 4-[2-(2-ethoxycarbonylvinyl)-9,10-dihydro-1-thiabenzo[f]azulen-4-ylidene]piperidine-1-carboxylate], the melting point lay in the range of 90 to 93 °C.

In turn, `CN1CCC(=C2c3ccccc3CCc3sc(Br)cc32)CC1` [Compound 11, 4-(2-bromo-9,10-dihydro-1-thiabenzo[f]-azulen-4-ylidene)-1-methylpiperidine] came in with a melting point of 141 to 142 °C.

Regarding `CC(C)(C)OC(=O)N1CCC(=C2c3ccccc3C=Cc3sc(CCC(=O)O)cc32)CC1` [Compound 7, 3-[4-(1-tert-butoxycarbonylpiperidin-4-ylidene)-4H-1-thiabenzo[f]azulen-2-yl]propionic acid], the melting point was 172 °C (dec.).

Regarding `O=C(O)CCc1cc2c(s1)C=Cc1ccccc1C2=C1CCNCC1` [Compound 5, 3-(4-piperidin-4-ylidene-4H-1-thiabenzo-[f]azulen-2-yl)propionic acid], the melting point was 254 °C (dec.). For the same compound, the intracerebral transmigration entry at intracerebral receptor is given as “low intracerebral transmigration”. For the same compound, at histamine H1 receptor, the “antagonistic action to histamine H1 receptor” value is “excellent antagonistic action” and the antihistaminic action entry is listed as “excellent antihistaminic action”.
